Values quoted from earlier work as cited in article PMC9851200, “Multiparameter phenotypic screening for endogenous TFEB and TFE3 translocation identifies novel chemical series modulating lysosome function” (Autophagy, 2022).

Experiments:
Set-up in all cases: method as in original PKIS2 published data
[1] = target: T1, kinases (KINOMEscan panel) (Homo sapiens, UniProt P15735); conditions: kinase PHKG2; Published KINOMEscan; ref original PKIS2 published data; cited from earlier work
T1 sequence (P15735 1-406): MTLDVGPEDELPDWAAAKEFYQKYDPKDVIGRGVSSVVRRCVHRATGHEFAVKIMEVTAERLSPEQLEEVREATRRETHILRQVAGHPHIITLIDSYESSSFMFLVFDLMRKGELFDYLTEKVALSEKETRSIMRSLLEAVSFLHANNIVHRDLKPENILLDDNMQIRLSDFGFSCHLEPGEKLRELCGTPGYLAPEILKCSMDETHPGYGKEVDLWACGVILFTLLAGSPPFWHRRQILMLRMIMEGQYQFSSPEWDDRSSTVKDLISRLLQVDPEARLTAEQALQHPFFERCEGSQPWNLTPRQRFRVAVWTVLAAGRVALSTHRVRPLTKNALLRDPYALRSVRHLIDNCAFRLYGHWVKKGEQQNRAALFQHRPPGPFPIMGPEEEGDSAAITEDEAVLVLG

[2] = target: kinases (KINOMEscan panel) (Homo sapiens, UniProt P50613); conditions: kinase CDK7; Published KINOMEscan; ref original PKIS2 published data; cited from earlier work
Chain of kinases (KINOMEscan panel) (Homo sapiens, UniProt P50613) (P50613 whole entry): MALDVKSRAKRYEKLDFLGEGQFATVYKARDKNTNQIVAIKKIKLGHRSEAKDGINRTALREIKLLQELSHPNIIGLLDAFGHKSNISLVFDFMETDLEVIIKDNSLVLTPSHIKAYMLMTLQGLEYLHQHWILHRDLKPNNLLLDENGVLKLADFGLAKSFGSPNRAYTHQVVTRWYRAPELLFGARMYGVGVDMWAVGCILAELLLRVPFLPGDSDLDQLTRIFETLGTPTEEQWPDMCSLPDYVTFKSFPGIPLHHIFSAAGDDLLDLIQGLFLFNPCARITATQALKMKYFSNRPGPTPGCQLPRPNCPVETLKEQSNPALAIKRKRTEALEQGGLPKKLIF

[3] = target: kinases (KINOMEscan panel) (Homo sapiens, UniProt Q9Y2H9); conditions: MAST1; Published KINOMEscan; ref original PKIS2 published data; cited from earlier work
Chain of kinases (KINOMEscan panel) (Homo sapiens, UniProt Q9Y2H9) (Q9Y2H9 whole entry): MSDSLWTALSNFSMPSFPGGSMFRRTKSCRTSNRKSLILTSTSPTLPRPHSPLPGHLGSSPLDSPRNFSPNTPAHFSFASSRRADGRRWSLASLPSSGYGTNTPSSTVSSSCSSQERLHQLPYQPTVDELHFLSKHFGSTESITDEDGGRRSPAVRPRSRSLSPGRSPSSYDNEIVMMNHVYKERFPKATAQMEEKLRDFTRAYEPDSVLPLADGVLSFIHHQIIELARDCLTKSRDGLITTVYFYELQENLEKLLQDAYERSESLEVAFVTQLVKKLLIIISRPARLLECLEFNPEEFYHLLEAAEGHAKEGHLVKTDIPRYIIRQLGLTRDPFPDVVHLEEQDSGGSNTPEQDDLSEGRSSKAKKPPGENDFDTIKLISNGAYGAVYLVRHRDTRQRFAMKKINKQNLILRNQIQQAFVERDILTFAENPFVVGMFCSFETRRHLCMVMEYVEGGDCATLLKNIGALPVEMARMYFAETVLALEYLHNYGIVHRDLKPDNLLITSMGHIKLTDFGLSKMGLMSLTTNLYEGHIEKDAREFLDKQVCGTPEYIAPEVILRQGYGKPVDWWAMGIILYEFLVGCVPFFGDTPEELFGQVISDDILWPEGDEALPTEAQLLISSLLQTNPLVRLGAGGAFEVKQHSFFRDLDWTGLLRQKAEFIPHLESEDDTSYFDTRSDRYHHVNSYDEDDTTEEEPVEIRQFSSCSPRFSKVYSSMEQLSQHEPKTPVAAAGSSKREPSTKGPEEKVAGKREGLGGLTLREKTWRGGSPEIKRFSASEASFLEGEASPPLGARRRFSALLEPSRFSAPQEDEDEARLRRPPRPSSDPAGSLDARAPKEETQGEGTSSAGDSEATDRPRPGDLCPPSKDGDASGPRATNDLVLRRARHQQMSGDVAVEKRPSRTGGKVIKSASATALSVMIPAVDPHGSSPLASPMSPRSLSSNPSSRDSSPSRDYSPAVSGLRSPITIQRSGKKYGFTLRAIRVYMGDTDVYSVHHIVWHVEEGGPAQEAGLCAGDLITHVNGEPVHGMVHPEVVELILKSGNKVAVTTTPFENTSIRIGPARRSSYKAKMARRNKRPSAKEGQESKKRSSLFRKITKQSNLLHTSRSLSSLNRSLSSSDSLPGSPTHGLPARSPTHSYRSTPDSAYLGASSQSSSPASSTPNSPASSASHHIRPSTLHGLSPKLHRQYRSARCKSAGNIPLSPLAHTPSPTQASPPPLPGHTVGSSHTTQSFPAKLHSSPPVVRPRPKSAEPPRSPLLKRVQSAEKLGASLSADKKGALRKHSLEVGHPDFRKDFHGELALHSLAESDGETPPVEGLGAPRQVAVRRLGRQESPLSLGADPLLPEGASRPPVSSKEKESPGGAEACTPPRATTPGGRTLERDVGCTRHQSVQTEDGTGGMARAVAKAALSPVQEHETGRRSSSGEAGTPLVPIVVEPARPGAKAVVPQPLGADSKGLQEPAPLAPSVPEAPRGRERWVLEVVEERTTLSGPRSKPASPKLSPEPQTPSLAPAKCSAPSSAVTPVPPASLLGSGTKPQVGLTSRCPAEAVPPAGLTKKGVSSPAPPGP

[4] = target: kinases (KINOMEscan panel) (Homo sapiens, UniProt Q86Y07); conditions: Published KINOMEscan; ref original PKIS2 published data; cited from earlier work
Chain of kinases (KINOMEscan panel) (Homo sapiens, UniProt Q86Y07) (Q86Y07 whole entry): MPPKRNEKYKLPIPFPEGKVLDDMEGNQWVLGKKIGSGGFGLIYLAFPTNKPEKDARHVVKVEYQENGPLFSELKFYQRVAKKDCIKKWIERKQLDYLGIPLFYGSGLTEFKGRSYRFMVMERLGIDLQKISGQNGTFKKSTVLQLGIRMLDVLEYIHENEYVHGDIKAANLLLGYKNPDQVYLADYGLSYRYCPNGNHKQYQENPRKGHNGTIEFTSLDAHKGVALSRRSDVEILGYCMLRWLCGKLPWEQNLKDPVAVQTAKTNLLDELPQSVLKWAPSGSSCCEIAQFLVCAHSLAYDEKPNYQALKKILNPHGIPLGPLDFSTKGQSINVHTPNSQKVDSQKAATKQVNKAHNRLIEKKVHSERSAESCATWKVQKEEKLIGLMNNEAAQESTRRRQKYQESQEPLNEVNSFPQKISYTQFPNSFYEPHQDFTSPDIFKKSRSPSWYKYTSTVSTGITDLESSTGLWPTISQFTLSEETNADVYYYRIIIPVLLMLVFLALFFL

[5] = target: T2, kinases (KINOMEscan panel) (Homo sapiens, UniProt Q09013); conditions: kinase DMPK; Published KINOMEscan; ref original PKIS2 published data; cited from earlier work
T2 sequence (Q09013 1-629): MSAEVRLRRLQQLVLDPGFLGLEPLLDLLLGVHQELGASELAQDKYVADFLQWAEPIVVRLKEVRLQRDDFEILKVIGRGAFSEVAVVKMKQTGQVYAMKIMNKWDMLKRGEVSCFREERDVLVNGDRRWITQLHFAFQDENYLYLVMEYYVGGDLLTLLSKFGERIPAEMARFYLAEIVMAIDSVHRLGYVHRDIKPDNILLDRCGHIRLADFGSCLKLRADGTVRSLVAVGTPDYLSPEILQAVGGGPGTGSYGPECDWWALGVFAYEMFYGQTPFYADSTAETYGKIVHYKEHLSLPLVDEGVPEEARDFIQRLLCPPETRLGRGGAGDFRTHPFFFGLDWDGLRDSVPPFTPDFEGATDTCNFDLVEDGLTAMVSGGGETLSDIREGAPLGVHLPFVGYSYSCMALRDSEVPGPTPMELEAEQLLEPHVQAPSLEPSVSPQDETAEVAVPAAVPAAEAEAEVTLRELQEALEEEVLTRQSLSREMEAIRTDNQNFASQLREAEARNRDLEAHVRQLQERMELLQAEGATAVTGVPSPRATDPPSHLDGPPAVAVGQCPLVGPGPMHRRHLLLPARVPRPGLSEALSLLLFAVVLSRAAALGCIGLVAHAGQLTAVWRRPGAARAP

[6] = target: T3, kinases (KINOMEscan panel) (Homo sapiens, UniProt Q8IW41); conditions: MAPKAPK5; Published KINOMEscan; ref original PKIS2 published data; cited from earlier work
T3 sequence (Q8IW41 1-473): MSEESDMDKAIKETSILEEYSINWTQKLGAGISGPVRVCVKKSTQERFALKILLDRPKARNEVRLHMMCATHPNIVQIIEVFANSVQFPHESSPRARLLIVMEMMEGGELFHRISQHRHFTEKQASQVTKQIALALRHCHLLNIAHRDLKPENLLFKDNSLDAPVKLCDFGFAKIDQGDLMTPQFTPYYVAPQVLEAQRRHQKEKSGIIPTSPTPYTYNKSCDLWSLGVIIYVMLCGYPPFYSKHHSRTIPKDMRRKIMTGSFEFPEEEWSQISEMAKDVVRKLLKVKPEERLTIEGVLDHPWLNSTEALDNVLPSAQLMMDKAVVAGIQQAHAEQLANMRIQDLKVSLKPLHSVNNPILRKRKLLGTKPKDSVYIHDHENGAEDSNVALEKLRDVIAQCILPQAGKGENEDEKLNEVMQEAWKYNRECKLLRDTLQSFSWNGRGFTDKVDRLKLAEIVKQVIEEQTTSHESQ

[7] = target: kinases (KINOMEscan panel) (Homo sapiens, UniProt Q14012); conditions: CAMK1; Published KINOMEscan; ref original PKIS2 published data; cited from earlier work
Chain of kinases (KINOMEscan panel) (Homo sapiens, UniProt Q14012) (Q14012 whole entry): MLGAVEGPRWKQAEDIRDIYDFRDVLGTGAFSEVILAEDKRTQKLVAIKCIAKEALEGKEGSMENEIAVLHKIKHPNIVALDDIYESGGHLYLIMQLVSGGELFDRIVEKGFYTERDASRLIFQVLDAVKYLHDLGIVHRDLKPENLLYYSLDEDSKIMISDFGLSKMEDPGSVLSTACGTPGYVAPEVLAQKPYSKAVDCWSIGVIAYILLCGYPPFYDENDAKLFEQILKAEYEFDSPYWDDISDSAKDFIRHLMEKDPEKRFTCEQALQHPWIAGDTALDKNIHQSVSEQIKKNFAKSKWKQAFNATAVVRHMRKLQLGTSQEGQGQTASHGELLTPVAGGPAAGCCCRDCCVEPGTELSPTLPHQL

In the case of `Cc1cccc(-c2nc(Nc3ccncc3)c3ccccc3n2)n1` [NK215], the “KINOMEscan PHKG2” value [1] is listed as 3, the “KINOMEscan CDK7” value [2] is listed as 0 and the “KINOMEscan MAST1” value [3] is listed as 50. The “KINOMEscan VRK2” value [4] was 0, the “KINOMEscan DMPK” value [5] was 2 and the “KINOMEscan MAPKAPK5” value [6] was 0. For the same compound, the “KINOMEscan CAMK1” value [7] was 0.
